Values quoted from earlier work in patent publication US8067542B1 (priority 2003, dated 2011).

Tested on: Verticillium dahliae
Conditions: AlfAFP expressed in potato (Gao et al, 2000); cited from earlier work

## Alf - wt: native alfalfa antifungal protein (plant defensin from Medicago sativa seeds), SEQ ID NO:2 (RTCENLADKYRGPCFSGCDTHCTTKENAVSGRCRDDFRCWCTKRC; listed as Medicago sativa)
  resistance to early dying disease in potato: confer resistance to early dying disease
